The values that follow come from US12448399B2, “Cereblon-based KRAS degrading PROTACs and uses related thereto” (Arvinas Operations, Inc., priority 2023, dated 2025).

The target in the first experiment is T1, KRas-G12D (Homo sapiens, UniProt P01116, G12D).
T1 construct: insert the HiBiT tag onto the N-terminus of one or more of the endogenous KRas alleles; host or cells: AsPC-1 HiBiT-KRasG12D knock-in clone (one tagged allele, two untagged KRasG12D alleles)
T1 sequence (P01116 1-188 isoform P01116-2 G12D): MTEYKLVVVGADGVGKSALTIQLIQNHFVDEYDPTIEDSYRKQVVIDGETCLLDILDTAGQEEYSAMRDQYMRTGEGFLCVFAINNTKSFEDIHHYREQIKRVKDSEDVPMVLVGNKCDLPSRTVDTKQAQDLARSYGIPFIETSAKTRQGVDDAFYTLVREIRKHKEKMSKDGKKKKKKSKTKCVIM
Nature of the experiment: HiBiT Degradation Assay (G12D), AsPC-1 HiBiT-KRasG12D cells, 24 hr. Type of experiment: cell-based. The conditions noted are these: ASPC1, AsPC-1 cells, maximum degradation observed. How it is done: AsPC-1 (CRL-1682) cells were purchased from ATCC and are homozygous for the G12D mutation in KRas. AsPC-1 cells were cultured in GIBCO RPMI-1640 (ThermoFisher Scientific, catalog #61870-036, with Glutamax, no HEPES, no Na Pyruvate) supplemented with 10% FBS (ThermoFisher Scientific, catalog #2060357) and 1× Penicillin-Streptomycin (ThermoFisher Scientific, catalog #15140122, 10000 U/ml, 100×). For degradation assays, 384 well plates were used. Alamar blue was purchased from ThermoFisher Scientific (A50101) and used according to manufacturer instructions. The Nano-Glo® HiBiT Lytic Detection System and Nano-Glo® HiBiT Blotting System were purchased from Promega (#N3050 and #N2410) and used according to manufacturer instructions.
To create the AsPC-1 HiBiT-KRasG12D cell line, CRISPR-Cas9 was used to insert the HiBiT tag onto the N-terminus of one or more of the endogenous KRas alleles. See Schwinn, M. K. et al. (2018) CRISPR-mediated tagging of endogenous proteins with a luminescent peptide, ACS Chem. Biol. 13(2), 467-474. After knock-in of the tag, individual clones were isolated by single cell dilution and screened for HiBiT insertion by PCR. A clone was identified that contained the desired HiBiT-KRasG12D sequence at one allele while the remaining two KRasG12D alleles were untagged. This clone was used in further studies.
AsPC-1 HiBiT-KRasG12D cells were plated at 9000 or 15,000 cells/well in a 384 well plate (Corning #3770). Compounds of the present disclosure and positive controls were diluted in the appropriate cell media and applied to the plated cells resulting in a final concentration titration of 10 μM to […] in 0.5% DMSO. Gambogic acid was used as a positive control for cytotoxicity and titrated from 10 μM to 78 nM. All assays were performed in triplicate. Cells were treated with compounds for 24 hr at 37° C. in an incubator containing 5% CO2. Following treatment, alamar blue was used to determine if any compounds led to a loss in cell viability after 24 hr. The 10× alamar blue reagent was added to a final concentration of 1× as recommended by the manufacturer and cells were returned to the incubator for 4 hr. Plates were then allowed to equilibrate to RT and fluorescence was measured using a Perkin-Elmer EnVision. After completion of the fluorescence read, the liquid from each well was removed and the cells were washed with PBS. The Nano-Glo® HiBiT detection reagent was prepared according to the manufacturer's instructions and added to each well after the PBS wash was removed. Following incubation at room temperature for 45 min, the luminescence was read using the ultra-sensitive luminescence aperture on the Envision instrument.
Fluorescence values from the alamar blue treatment were normalized to the DMSO-only control for each compound titration. HiBiT luminescence was normalized to the DMSO-only control and the fractional HiBiT signal was plotted versus the log of the PROTAC concentration and fit to a 4-parameter dose-response model to obtain the concentration of the compound that leads to half maximal degradation (DC50) as well as the maximum degradation observed (Dmax, conventionally expressed as a percentage of control).
Turning to `CCc1cccc2cc(O)cc(-c3ncc4c(N5CC6CCC(C5)N6)nc(OC[C@@]56CCCN5[C@H](COC(=O)N5CCN(c7cccc8c7CN(C7CCC(=O)N(C)C7=O)C8=O)CC5)CC6)nc4c3F)c12` (stereo partly drawn) [Compound 52, [(3S,8S)-8-[[4-(3,8-diazabicyclo[3.2.1]octan-3-yl)-7-(8-ethyl-3-hydroxy-1-naphthyl)-8-fluoro-pyrido[4,3-d]pyrimidin-2-yl]oxymethyl]-1,2,3,5,6,7-hexahydropyrrolizin-3-yl]methyl 4-[2-(1-methyl-2,6-dioxo-3-piperidyl)-1-oxo-isoindolin-4-yl]piperazine-1-carboxylate], the Dmax (usually the largest share of the target that was removed) was no more than 25%.
On to `CCc1cccc2cc(O)cc(-c3ncc4c(N5CC6CCC(C5)N6)nc(OC[C@]56CCCN5[C@@H](COC(=O)N5CCN(c7cccc8c7CN(C7CCC(=O)N(C)C7=O)C8=O)CC5)CC6)nc4c3F)c12` (stereo partly drawn) [Compound 54, [(3R,8R)-8-[[4-(3,8-diazabicyclo[3.2.1]octan-3-yl)-7-(8-ethyl-3-hydroxy-1-naphthyl)-8-fluoro-pyrido[4,3-d]pyrimidin-2-yl]oxymethyl]-1,2,3,5,6,7-hexahydropyrrolizin-3-yl]methyl4-[2-(1-methyl-2,6-dioxo-3-piperidyl)-1-oxo-isoindolin-4-yl]piperazine-1-carboxylate], for which the Dmax was no more than 25%.

Still in this experiment, the particulars now being: AsPC-1 cells.
`CCc1cccc2cc(O)cc(-c3ncc4c(N5CC6CCC(C5)N6)nc(OC[C@@]56CCCN5[C@H](COC(=O)N5CCN(c7cccc8c7CN(C7CCC(=O)N(C)C7=O)C8=O)CC5)CC6)nc4c3F)c12` (stereo partly drawn) [Compound 52, [(3S,8S)-8-[[4-(3,8-diazabicyclo[3.2.1]octan-3-yl)-7-(8-ethyl-3-hydroxy-1-naphthyl)-8-fluoro-pyrido[4,3-d]pyrimidin-2-yl]oxymethyl]-1,2,3,5,6,7-hexahydropyrrolizin-3-yl]methyl 4-[2-(1-methyl-2,6-dioxo-3-piperidyl)-1-oxo-isoindolin-4-yl]piperazine-1-carboxylate]: the DC50 (in general, the concentration at which degradation of the target reaches its halfway point) fell in the range of 0.25 to 1 µM.
In the case of `CCc1cccc2cc(O)cc(-c3ncc4c(N5CC6CCC(C5)N6)nc(OC[C@]56CCCN5[C@@H](COC(=O)N5CCN(c7ccc8c(c7)CN(C7CCC(=O)N(C)C7=O)C8=O)CC5)CC6)nc4c3F)c12` (stereo partly drawn) [Compound 53, [(3R,8R)-8-[[4-(3,8-diazabicyclo[3.2.1]octan-3-yl)-7-(8-ethyl-3-hydroxy-1-naphthyl)-8-fluoro-pyrido[4,3-d]pyrimidin-2-yl]oxymethyl]-1,2,3,5,6,7-hexahydropyrrolizin-3-yl]methyl4-[2-(1-methyl-2,6-dioxo-3-piperidyl)-1-oxo-isoindolin-5-yl]piperazine-1-carboxylate], the DC50 was in the range of 0.1 to 5.25 µM.
Same read-out and setting: the figure for `CCc1cccc2cc(O)cc(-c3ncc4c(N5CC6CCC(C5)N6)nc(OC[C@]56CCCN5[C@@H](COC(=O)N5CCN(c7cccc8c7CN(C7CCC(=O)N(C)C7=O)C8=O)CC5)CC6)nc4c3F)c12` (stereo partly drawn) [Compound 54, [(3R,8R)-8-[[4-(3,8-diazabicyclo[3.2.1]octan-3-yl)-7-(8-ethyl-3-hydroxy-1-naphthyl)-8-fluoro-pyrido[4,3-d]pyrimidin-2-yl]oxymethyl]-1,2,3,5,6,7-hexahydropyrrolizin-3-yl]methyl4-[2-(1-methyl-2,6-dioxo-3-piperidyl)-1-oxo-isoindolin-4-yl]piperazine-1-carboxylate] is 0.25 to 1 µM; for `CCc1cccc2cc(O)cc(-c3ncc4c(N5CC6CCC(C5)N6)nc(OCCN5CCC(CC6CCN(CC7CCN(c8cccc9c8CN(C8CCC(=O)NC8=O)C9=O)CC7)CC6)CC5)nc4c3F)c12` (centres unmarked) [Compound 55, 3-[4-[4-[[4-[[1-[2-[4-(3,8-diazabicyclo[3.2.1]octan-3-yl)-7-(8-ethyl-3-hydroxy-1-naphthyl)-8-fluoro-pyrido[4,3-d]pyrimidin-2-yl]oxyethyl]-4-piperidyl]methyl]-1-piperidyl]methyl]-1-piperidyl]-1-oxo-isoindolin-2-yl]piperidine-2,6-dione] it is less than 5.1 µM.
`CCc1cccc2cc(O)cc(-c3ncc4c(N5CC6CCC(C5)N6)nc(OCCN5CCC(CC6CCN(c7cccc8c7CN(C7CCC(=O)NC7=O)C8=O)CC6)CC5)nc4c3F)c12` (centres unmarked) [Compound 56, 3-[4-[4-[[1-[2-[4-(3,8-diazabicyclo[3.2.1]octan-3-yl)-7-(8-ethyl-3-hydroxy-1-naphthyl)-8-fluoro-pyrido[4,3-d]pyrimidin-2-yl]oxyethyl]-4-piperidyl]methyl]-1-piperidyl]-1-oxo-isoindolin-2-yl]piperidine-2,6-dione] came in with a DC50 of 0.25 to 1 µM.
On the same count and under the same terms, in the case of `CCc1cccc2cc(O)cc(-c3ncc4c(N5CC6CCC(C5)N6)nc(OCCN5CCC(CC6CCN(CC7CCN(c8cccc9c8C(=O)N(C8CCC(=O)NC8=O)C9=O)CC7)CC6)CC5)nc4c3F)c12` (centres unmarked) [Compound 57, 4-[4-[[4-[[1-[2-[4-(3,8-diazabicyclo[3.2.1]octan-3-yl)-7-(8-ethyl-3-hydroxy-1-naphthyl)-8-fluoro-pyrido[4,3-d]pyrimidin-2-yl]oxyethyl]-4-piperidyl]methyl]-1-piperidyl]methyl]-1-piperidyl]-2-(2,6-dioxo-3-piperidyl)isoindoline-1,3-dione] it was 0.1 to 5.25 µM; in that of `CCc1cccc2cc(O)cc(-c3ncc4c(N5CC6CCC(C5)N6)nc(OC[C@@]56CCCN5[C@H](COC(=O)N5CCN(c7ccc8c(c7)CN(C7CCC(=O)NC7=O)C8=O)CC5)CC6)nc4c3F)c12` (stereo partly drawn) [Compound 58, [(3S,8S)-8-[[4-(3,8-diazabicyclo[3.2.1]octan-3-yl)-7-(8-ethyl-3-hydroxy-1-naphthyl)-8-fluoro-pyrido[4,3-d]pyrimidin-2-yl]oxymethyl]-1,2,3,5,6,7-hexahydropyrrolizin-3-yl]methyl 4-[2-(2,6-dioxo-3-piperidyl)-1-oxo-isoindolin-5-yl]piperazine-1-carboxylate], less than 5.1 µM; in that of `CCc1cccc2cc(O)cc(-c3ncc4c(N5CC6CCC(C5)N6)nc(OC[C@]56CCCN5[C@@H](COC(=O)N5CCN(c7ccc8c(c7)CN(C7CCC(=O)NC7=O)C8=O)CC5)CC6)nc4c3F)c12` (stereo partly drawn) [Compound 59, [(3R,8R)-8-[[4-(3,8-diazabicyclo[3.2.1]octan-3-yl)-7-(8-ethyl-3-hydroxy-1-naphthyl)-8-fluoro-pyrido[4,3-d]pyrimidin-2-yl]oxymethyl]-1,2,3,5,6,7-hexahydropyrrolizin-3-yl]methyl 4-[2-(2,6-dioxo-3-piperidyl)-1-oxo-isoindolin-5-yl]piperazine-1-carboxylate], less than 5.1 µM.
With `CCc1cccc2cc(O)cc(-c3ncc4c(N5CC6CCC(C5)N6)nc(OC[C@@]56CCCN5[C@H](COC(=O)N5CCN(c7cccc8c7CN(C7CCC(=O)NC7=O)C8=O)CC5)CC6)nc4c3F)c12` (stereo partly drawn) [Compound 60, [(3S,8S)-8-[[4-(3,8-diazabicyclo[3.2.1]octan-3-yl)-7-(8-ethyl-3-hydroxy-1-naphthyl)-8-fluoro-pyrido[4,3-d]pyrimidin-2-yl]oxymethyl]-1,2,3,5,6,7-hexahydropyrrolizin-3-yl]methyl 4-[2-(2,6-dioxo-3-piperidyl)-1-oxo-isoindolin-4-yl]piperazine-1-carboxylate], the DC50 lay in the range of 0.1 to 5.25 µM.
On the same count and under the same terms, in the case of `CCc1cccc2cc(O)cc(-c3ncc4c(N5CC6CCC(C5)N6)nc(OC[C@]56CCCN5[C@@H](COC(=O)N5CCN(c7cccc8c7CN(C7CCC(=O)NC7=O)C8=O)CC5)CC6)nc4c3F)c12` (stereo partly drawn) [Compound 61, [(3R,8R)-8-[[4-(3,8-diazabicyclo[3.2.1]octan-3-yl)-7-(8-ethyl-3-hydroxy-1-naphthyl)-8-fluoro-pyrido[4,3-d]pyrimidin-2-yl]oxymethyl]-1,2,3,5,6,7-hexahydropyrrolizin-3-yl]methyl 4-[2-(2,6-dioxo-3-piperidyl)-1-oxo-isoindolin-4-yl]piperazine-1-carboxylate] it was 0.25 to 1 µM; in that of `CCc1cccc2cc(O)cc(-c3ncc4c(N5CC6CCC(C5)N6)nc(OC[C@@]56CCCN5[C@H](COC(=O)N5CCN(c7ccc8c(c7)C(=O)N(C7CCC(=O)NC7=O)C8=O)CC5)CC6)nc4c3F)c12` (stereo partly drawn) [Compound 62, [(3S,8S)-8-[[4-(3,8-diazabicyclo[3.2.1]octan-3-yl)-7-(8-ethyl-3-hydroxy-1-naphthyl)-8-fluoro-pyrido[4,3-d]pyrimidin-2-yl]oxymethyl]-1,2,3,5,6,7-hexahydropyrrolizin-3-yl]methyl4-[2-(2,6-dioxo-3-piperidyl)-1,3-dioxo-isoindolin-5-yl]piperazine-1-carboxylate], less than 5.1 µM; in that of `CCc1cccc2cc(O)cc(-c3ncc4c(N5CC6CCC(C5)N6)nc(OC[C@]56CCCN5[C@@H](COC(=O)N5CCN(c7ccc8c(c7)C(=O)N(C7CCC(=O)NC7=O)C8=O)CC5)CC6)nc4c3F)c12` (stereo partly drawn) [Compound 63, [(3R,8R)-8-[[4-(3,8-diazabicyclo[3.2.1]octan-3-yl)-7-(8-ethyl-3-hydroxy-1-naphthyl)-8-fluoro-pyrido[4,3-d]pyrimidin-2-yl]oxymethyl]-1,2,3,5,6,7-hexahydropyrrolizin-3-yl]methyl4-[2-(2,6-dioxo-3-piperidyl)-1,3-dioxo-isoindolin-5-yl]piperazine-1-carboxylate], 0.25 to 1 µM.
